Data: US11279687B2, “Compounds and compositions for the inhibition of NAMPT” (Valo Health, Inc., priority 2010, dated 2022)
Where two headings read alike, the source gives them in different places.

Tests used:
NAMPT = NAMPT (Homo sapiens (Human), UniProt P43490); assay: NAMPT biochemical inhibition assay (NMN quantified by mass spectrometry); conditions: NAMPT biochemical inhibition; read-out: Biochem IC50
A2780 cells = assay: In-vitro cell proliferation assay (SRB), A2780 cells; format: cell-based; conditions: A2780 cells, 72 hours, SRB, read-out: A2780 IC50;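 further: viable cell number read as SRB absorbance, background from media-only wells subtracted, IC50 interpolated from percent inhibition at two bracketing compound concentrations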

NAMPT, sequence (P43490 whole entry): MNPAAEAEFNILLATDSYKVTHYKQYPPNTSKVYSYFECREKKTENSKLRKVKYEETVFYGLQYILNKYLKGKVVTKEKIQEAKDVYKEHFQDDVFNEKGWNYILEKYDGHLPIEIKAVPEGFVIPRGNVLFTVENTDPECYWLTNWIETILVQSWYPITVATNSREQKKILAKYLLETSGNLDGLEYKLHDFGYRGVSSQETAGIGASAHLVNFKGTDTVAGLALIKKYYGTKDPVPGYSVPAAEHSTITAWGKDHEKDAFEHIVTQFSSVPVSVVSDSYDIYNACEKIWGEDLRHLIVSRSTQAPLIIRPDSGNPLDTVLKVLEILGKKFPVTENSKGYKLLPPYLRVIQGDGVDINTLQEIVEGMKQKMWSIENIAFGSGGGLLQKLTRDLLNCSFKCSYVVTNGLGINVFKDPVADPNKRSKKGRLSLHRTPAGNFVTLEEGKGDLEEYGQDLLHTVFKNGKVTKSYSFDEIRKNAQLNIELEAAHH

SMILES	IC50 (NAMPT)	IC50 (A2780 cells; Homo sapiens, A2780, 72 h)	IC50 (A2780 cells)
O=C(NCc1cccnc1)Nc1ccc(S(=O)(=O)c2ccccc2C(F)(F)F)cc1 [1-(pyridin-3-ylmethyl)-3-(4-{[2-(trifluoromethyl)benzene]sulfonyl}phenyl)urea]	3 nM	569 nM	–
O=C(NCc1cccnc1)Nc1ccc(S(=O)(=O)c2cccc(OC(F)(F)F)c2)cc1 [1-(pyridin-3-ylmethyl)-3-(4-{[3-(trifluoromethoxy)benzene]sulfonyl}phenyl)urea]	1 nM	83 nM	–
O=C(NCc1cccnc1)Nc1ccc(S(=O)(=O)c2ccc(C(F)(F)F)cc2)cc1 [1-(pyridin-3-ylmethyl)-3-(4-{[4-(trifluoromethyl)benzene]sulfonyl}phenyl)urea]	9 nM	604 nM	–
O=C(NCc1cccnc1)Nc1ccc(S(=O)(=O)n2cccc2)cc1 [1-(pyridin-3-ylmethyl)-3-[4-(1H-pyrrole-1-sulfonyl)phenyl]urea]	19 nM	1790 nM	–
CC1CCN(S(=O)(=O)c2ccc(NC(=O)NCc3cccnc3)cc2)CC(C)(C)C1 (stereo not shown) [1-(pyridin-3-ylmethyl)-3-[4-(3,3,5-trimethylazepane-1-sulfonyl)phenyl]urea]	2 nM	9.2 nM	–
O=C(NCc1cccnc1)Nc1ccc(S(=O)(=O)C(F)(F)F)cc1 [1-(pyridin-3-ylmethyl)-3-[4-(trifluoromethane)sulfonylphenyl]urea]	226 nM	10000 nM	–
O=C(NCc1cccnc1)Nc1ccc(S(=O)(=O)N2CCCC(C(F)(F)F)C2)cc1 (stereo not shown) [1-(pyridin-3-ylmethyl)-3-{4-[3-(trifluoromethyl)piperidine-1-sulfonyl]phenyl}urea]	3 nM	26 nM	–
O=C(NCc1cccnc1)Nc1ccc(S(=O)(=O)c2ccc(C(F)(F)F)nc2)cc1 [1-(pyridin-3-ylmethyl)-3-{4-[6-(trifluoromethyl)pyridine-3-sulfonyl]phenyl}urea]	27.9 nM	1000 to 10000 nM	–
NS(=O)(=O)c1cccc(S(=O)(=O)c2ccc(NC(=O)NCc3cccnc3)cc2)c1 [1-(pyridin-3-ylmethyl)-3-{4-[(3-sulfamoylbenzene)sulfonyl]phenyl}urea]	3.8 nM	100 to 1000 nM	–
O=C(NCc1cccnc1)Nc1ccc(S(=O)(=O)c2cccc3cc[nH]c23)cc1 [1-[4-(1H-indole-7-sulfonyl)phenyl]-3-(pyridin-3-ylmethyl)urea]	0.5 nM	3.4 nM	–
O=C(NCc1cccnc1)Nc1ccc(S(=O)(=O)c2ccc3c(c2)OCCO3)cc1 [1-[4-(2,3-dihydro-1,4-benzodioxine-6-sulfonyl)phenyl]-3-(pyridin-3-ylmethyl)urea]	1.1 nM	100 to 1000 nM	–
CC1CCCC(C)N1S(=O)(=O)c1ccc(NC(=O)NCc2cccnc2)cc1 (stereo not shown) [1-[4-(2,6-dimethylpiperidine-1-sulfonyl)phenyl]-3-(pyridin-3-ylmethyl)urea]	11 nM	164 nM	–
O=C(NCc1cccnc1)Nc1ccc(S(=O)(=O)c2cccc3c2OCO3)cc1 [1-[4-(2H-1,3-benzodioxole-4-sulfonyl)phenyl]-3-(pyridin-3-ylmethyl)urea]	4.3 nM	100 to 1000 nM	–
O=C(NCc1cccnc1)Nc1ccc(S(=O)(=O)c2ccc3c(c2)OCO3)cc1 [1-[4-(2H-1,3-benzodioxole-5-sulfonyl)phenyl]-3-(pyridin-3-ylmethyl)urea]	1 nM	322 nM	–
CC1CC(C)CN(S(=O)(=O)c2ccc(NC(=O)NCc3cccnc3)cc2)C1 (stereo not shown) [1-[4-(3,5-dimethylpiperidine-1-sulfonyl)phenyl]-3-(pyridin-3-ylmethyl)urea]	6 nM	14 nM	–
O=C(NCc1cccnc1)Nc1ccc(S(=O)(=O)N2CCCN(Cc3ccccc3)CC2)cc1 [1-[4-(4-benzyl-1,4-diazepane-1-sulfonyl)phenyl]-3-(pyridin-3-ylmethyl)urea]	5 nM	137 nM	–
O=C(NCc1cccnc1)Nc1ccc(S(=O)(=O)N2CCN(C(=O)[C@H]3CCCO3)CC2)cc1 [1-[4-(4-{[(2R)-oxolan-2-yl]carbonyl[piperazine-1-sulfonyl)phenyl]-3-(pyridin-3-ylmethyl)urea]	8 nM	–	30 nM
O=C(NCc1cccnc1)Nc1ccc(S(=O)(=O)NC2CCCCCC2)cc1 [1-[4-(cycloheptylsulfamoyl)phenyl]-3-(pyridin-3-ylmethyl)urea]	3 nM	80 nM	–
O=C(NCc1cccnc1)Nc1ccc(S(=O)(=O)NC2CCCCC2)cc1 [1-[4-(cyclohexylsulfamoyl)phenyl]-3-(pyridin-3-ylmethyl)urea]	1 nM	204 nM	–
O=C(NCc1cccnc1)Nc1ccc(S(=O)(=O)N2CCCC3CCCCC32)cc1 (stereo not shown) [1-[4-(decahydroquinoline-1-sulfonyl)phenyl]-3-(pyridin-3-ylmethyl)urea]	11 nM	14 nM	–
O=C(NCc1cccnc1)Nc1ccc(S(=O)(=O)c2cccc3c2Oc2ccccc2S3)cc1 [1-[4-(phenoxathiine-4-sulfonyl)phenyl]-3-(pyridin-3-ylmethyl)urea]	2.9 nM	1.8 nM	–
O=C(NCc1cccnc1)Nc1ccc(S(=O)(=O)c2cccc(C(=O)N3CCOCC3)c2)cc1 [1-[4-({3-[(morpholin-4-yl)carbonyl]benzene}sulfonyl)phenyl]-3-(pyridin-3-ylmethyl)urea]	5 nM	100 to 1000 nM	–
Nc1ccc(CNC(=O)Nc2ccc(S(=O)(=O)c3ccc(F)cc3)cc2)cn1 [1-[(6-aminopyridin-3-yl)methyl]-3-{4-[(4-fluorobenzene)sulfonyl]phenyl}urea]	2 nM	43 nM	–
O=C(NCc1cccnc1)Nc1ccc(S(=O)(=O)c2cccnc2N2CCOCC2)cc1 [1-{4-[2-(morpholin-4-yl)pyridine-3-sulfonyl]phenyl}-3-(pyridin-3-ylmethyl)urea]	16 nM	100 to 1000 nM	–

The remaining compounds from weak to strong by IC50 (NAMPT), led by results:

IC50 (NAMPT)	IC50 (A2780 cells; Homo sapiens, A2780, 72 h)	SMILES	IC50 (A2780 cells)
460 nM	> 30000 nM	O=C(NCc1cc2ccncc2s1)Nc1ccc(S(=O)(=O)c2ccccc2)cc1 [1-[4-(benzenesulfonyl)phenyl]-3-{thieno[2,3-c]pyridin-2-ylmethyl}urea]	–
92 nM	29000 nM	O=C(NCc1ccc(F)c(F)c1)Nc1ccc(S(=O)(=O)N2CCCCC2)cc1 [1-[(3,4-difluorophenyl)methyl]-3-[4-(piperidine-1-sulfonyl)phenyl]urea]	–
80 nM	91 nM	C[C@@H]1[C@H]2C[C@@H](C[C@H]1NS(=O)(=O)c1ccc(NC(=O)NCc3cccnc3)cc1)C2(C)C [1-(pyridin-3-ylmethyl)-3-(4-{[(1R,2R,3R,5S)-2,6,6-trimethylbicyclo[3.1.1]heptan-3-yl]sulfamoyl}phenyl)urea]	–
48.6 nM	> 2000 nM	O=C(NCc1cccnc1)Nc1ccc(S(=O)(=O)N2CCNCC2)cc1 [1-[4-(piperazine-1-sulfonyl)phenyl]-3-(pyridin-3-ylmethyl)urea]	–
43 nM	1860 nM	O=C(NCc1cccnc1)Nc1ccc(S(=O)(=O)C2CCCC2)cc1 [1-[4-(cyclopentanesulfonyl)phenyl]-3-(pyridin-3-ylmethyl)urea]	–
25 nM	299 nM	O=C(NCc1cccnc1)Nc1ccc(S(=O)(=O)N2CCC(F)(F)CC2)cc1 [1-[4-(4,4-difluoropiperidine-1-sulfonyl)phenyl]-3-(pyridin-3-ylmethyl)urea]	–
15 nM	2360 nM	O=C(NCc1cccnc1)Nc1ccc(S(=O)(=O)c2ccccc2)nc1 [1-[6-(benzenesulfonyl)pyridin-3-yl]-3-(pyridin-3-ylmethyl)urea]	–
11 nM	> 1000 nM	Cc1cc(C)c(S(=O)(=O)c2ccc(NC(=O)NCc3cccnc3)cc2)c(C)c1 [1-(pyridin-3-ylmethyl)-3-{4-[(2,4,6-trimethylbenzene)sulfonyl]phenyl}urea]	–
10 nM	459 nM	O=C(NCc1cccnc1)Nc1ccc(S(=O)(=O)N2CCOc3ccccc32)cc1 [1-[4-(3,4-dihydro-2H-1,4-benzoxazine-4-sulfonyl)phenyl]-3-(pyridin-3-ylmethyl)urea]	–
5 nM	420 nM	O=C(NCc1cccnc1)Nc1ccc(S(=O)(=O)c2ccc(OC(F)(F)F)cc2)cc1 [1-(pyridin-3-ylmethyl)-3-(4-{[4-(trifluoromethoxy)benzene]sulfonyl}phenyl)urea]	–
4 nM	54 nM	O=C(NCc1cccnc1)Nc1ccc(S(=O)(=O)Nc2ccc(N3CCCCC3)cc2)cc1 [1-(4-{[4-(piperidin-1-yl)phenyl]sulfamoyl}phenyl)-3-(pyridin-3-ylmethyl)urea]	–
3 nM	29 nM	O=C(NCc1cccnc1)Nc1ccc(S(=O)(=O)N2CCC[C@H](C(F)(F)F)C2)cc1 [1-(pyridin-3-ylmethyl)-3-{4-[(3S)-3-(trifluoromethyl)piperidine-1-sulfonyl]phenyl}urea]	–
1.6 nM	13.4 nM	O=C(NCc1cccnc1)Nc1ccc(S(=O)(=O)c2cccc3[nH]ccc23)cc1 [1-[4-(1H-indole-4-sulfonyl)phenyl]-3-(pyridin-3-ylmethyl)urea]	–
1.4 nM	8.3 nM	O=C(NCc1cccnc1)Nc1ccc(S(=O)(=O)c2cncc3ccccc23)cc1 [1-[4-(isoquinoline-4-sulfonyl)phenyl]-3-(pyridin-3-ylmethyl)urea]	–
1.2 nM	7 nM	O=C(NCc1cccnc1)Nc1ccc(S(=O)(=O)Nc2ccccc2OC(F)(F)F)cc1 [1-(pyridin-3-ylmethyl)-3-(4-{[2-(trifluoromethoxy)phenyl]sulfamoyl}phenyl)urea]	–
1.1 nM	10.5 nM	O=C(NCc1cccnc1)Nc1ccc(S(=O)(=O)c2cccc3c2OCC3)cc1 [1-[4-(2,3-dihydro-1-benzofuran-7-sulfonyl)phenyl]-3-(pyridin-3-ylmethyl)urea]	–
0.8 nM	0.3 nM	O=C(NCc1cccnc1)Nc1ccc(S(=O)(=O)N(Cc2ccccc2)Cc2ccccc2)cc1 [1-[4-(dibenzylsulfamoyl)phenyl]-3-(pyridin-3-ylmethyl)urea]	–
